According to article PMC8550792, “Evolution of kinase polypharmacology across HSP90 drug discovery” (Cell Chemical Biology, 2021):

Tests used:
Assay in all cases: biochemical
Assay type in all cases: biochemical
382 unique human kinases [1] = biological target: T1, 382 unique human kinases (Homo sapiens, UniProt P08631); conditions: HCK, [ATP] 30 µM
T1 construct: purchased Reaction Biology (HotSpot contract assay)

382 unique human kinases [2] = biological target: T2, 382 unique human kinases (Homo sapiens, UniProt P27361); conditions: ERK1, 10 uM; for remaining activity at 10 µM: read-out: % Enzyme Activity (relative to DMSO controls)
T2 construct: purchased Reaction Biology (HotSpot contract assay)

382 unique human kinases [3] = biological target: T3, 382 unique human kinases (Homo sapiens, UniProt P29597); conditions: TYK2, [ATP] 15 µM, compound 10 uM; for remaining activity at 10 µM: read-out: % Enzyme Activity (relative to DMSO controls)
T3 construct: purchased Reaction Biology (HotSpot contract assay)

382 unique human kinases [4] = biological target: T4, 382 unique human kinases (Homo sapiens, UniProt Q86YV6); conditions: MYLK4, [ATP] 50 µM, compound 10 uM; for remaining activity at 10 µM: read-out: % Enzyme Activity (relative to DMSO controls)
T4 construct: purchased Reaction Biology (HotSpot contract assay)
T4 sequence (Q86YV6 1-388): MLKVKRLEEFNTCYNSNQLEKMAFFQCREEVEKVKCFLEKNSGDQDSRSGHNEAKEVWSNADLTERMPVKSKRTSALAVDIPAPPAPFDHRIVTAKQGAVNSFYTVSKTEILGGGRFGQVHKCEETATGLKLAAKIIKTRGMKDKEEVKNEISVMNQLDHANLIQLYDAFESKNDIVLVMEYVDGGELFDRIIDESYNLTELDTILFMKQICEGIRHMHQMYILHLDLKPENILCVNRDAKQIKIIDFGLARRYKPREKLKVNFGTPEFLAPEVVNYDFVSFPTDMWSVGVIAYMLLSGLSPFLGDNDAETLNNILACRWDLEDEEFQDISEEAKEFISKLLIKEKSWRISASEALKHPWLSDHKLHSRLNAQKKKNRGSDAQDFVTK

382 unique human kinases [5] = biological target: T5, 382 unique human kinases (Homo sapiens, UniProt Q96RG2); conditions: PASK, [ATP] 50 µM
T5 construct: purchased Reaction Biology (HotSpot contract assay)

382 unique human kinases [6] = biological target: T6, 382 unique human kinases (Homo sapiens, UniProt Q9BYP7); conditions: WNK3, 10 uM; for remaining activity at 10 µM: read-out: % Enzyme Activity (relative to DMSO controls)
T6 construct: purchased Reaction Biology (HotSpot contract assay)

382 unique human kinases [7] = biological target: T7, 382 unique human kinases (Homo sapiens, UniProt P08581, Y1230H); conditions: c-MET (Y1230H), 10 uM; for remaining activity at 10 µM: read-out: % Enzyme Activity (relative to DMSO controls)
T7 construct: purchased Reaction Biology (HotSpot contract assay)

382 unique human kinases [8] = biological target: T8, 382 unique human kinases (Homo sapiens, UniProt P22607, K650M); conditions: FGFR3 (K650M), 10 uM; for remaining activity at 10 µM: read-out: % Enzyme Activity (relative to DMSO controls)
T8 construct: purchased Reaction Biology (HotSpot contract assay)

382 unique human kinases [9] = biological target: T9, 382 unique human kinases (Homo sapiens, UniProt P31751); conditions: kinase AKT2, compound 10 uM; for remaining activity at 10 µM: read-out: % Enzyme Activity (relative to DMSO controls)
T9 construct: purchased Reaction Biology (HotSpot contract assay)

382 unique human kinases [10] = biological target: T10, 382 unique human kinases (Homo sapiens, UniProt P49759); conditions: CLK1, 10 uM; for remaining activity at 10 µM: read-out: % Enzyme Activity (relative to DMSO controls)
T10 construct: purchased Reaction Biology (HotSpot contract assay)

382 unique human kinases [11] = biological target: T11, 382 unique human kinases (Homo sapiens, UniProt Q13043); conditions: MST1/STK4, 10 uM; for remaining activity at 10 µM: read-out: % Enzyme Activity (relative to DMSO controls)
T11 construct: purchased Reaction Biology (HotSpot contract assay)
T11 sequence (Q13043 1-487): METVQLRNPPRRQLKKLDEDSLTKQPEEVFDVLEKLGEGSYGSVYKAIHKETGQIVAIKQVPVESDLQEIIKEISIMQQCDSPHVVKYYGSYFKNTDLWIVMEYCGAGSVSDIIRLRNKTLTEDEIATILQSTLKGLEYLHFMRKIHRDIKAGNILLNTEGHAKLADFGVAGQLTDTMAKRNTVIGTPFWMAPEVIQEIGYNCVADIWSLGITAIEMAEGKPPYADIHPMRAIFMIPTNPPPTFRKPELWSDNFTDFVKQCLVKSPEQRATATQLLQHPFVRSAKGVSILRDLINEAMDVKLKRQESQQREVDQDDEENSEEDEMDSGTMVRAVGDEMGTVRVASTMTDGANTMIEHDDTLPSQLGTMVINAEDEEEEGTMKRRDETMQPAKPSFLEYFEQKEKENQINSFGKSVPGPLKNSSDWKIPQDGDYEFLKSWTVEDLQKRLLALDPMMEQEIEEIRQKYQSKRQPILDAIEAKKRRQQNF

382 unique human kinases [12] = biological target: T12, 382 unique human kinases (Homo sapiens, UniProt Q13873); conditions: BMPR2, 10 uM; for remaining activity at 10 µM: read-out: % Enzyme Activity (relative to DMSO controls)
T12 construct: purchased Reaction Biology (HotSpot contract assay)
T12 sequence (Q13873 27-1038): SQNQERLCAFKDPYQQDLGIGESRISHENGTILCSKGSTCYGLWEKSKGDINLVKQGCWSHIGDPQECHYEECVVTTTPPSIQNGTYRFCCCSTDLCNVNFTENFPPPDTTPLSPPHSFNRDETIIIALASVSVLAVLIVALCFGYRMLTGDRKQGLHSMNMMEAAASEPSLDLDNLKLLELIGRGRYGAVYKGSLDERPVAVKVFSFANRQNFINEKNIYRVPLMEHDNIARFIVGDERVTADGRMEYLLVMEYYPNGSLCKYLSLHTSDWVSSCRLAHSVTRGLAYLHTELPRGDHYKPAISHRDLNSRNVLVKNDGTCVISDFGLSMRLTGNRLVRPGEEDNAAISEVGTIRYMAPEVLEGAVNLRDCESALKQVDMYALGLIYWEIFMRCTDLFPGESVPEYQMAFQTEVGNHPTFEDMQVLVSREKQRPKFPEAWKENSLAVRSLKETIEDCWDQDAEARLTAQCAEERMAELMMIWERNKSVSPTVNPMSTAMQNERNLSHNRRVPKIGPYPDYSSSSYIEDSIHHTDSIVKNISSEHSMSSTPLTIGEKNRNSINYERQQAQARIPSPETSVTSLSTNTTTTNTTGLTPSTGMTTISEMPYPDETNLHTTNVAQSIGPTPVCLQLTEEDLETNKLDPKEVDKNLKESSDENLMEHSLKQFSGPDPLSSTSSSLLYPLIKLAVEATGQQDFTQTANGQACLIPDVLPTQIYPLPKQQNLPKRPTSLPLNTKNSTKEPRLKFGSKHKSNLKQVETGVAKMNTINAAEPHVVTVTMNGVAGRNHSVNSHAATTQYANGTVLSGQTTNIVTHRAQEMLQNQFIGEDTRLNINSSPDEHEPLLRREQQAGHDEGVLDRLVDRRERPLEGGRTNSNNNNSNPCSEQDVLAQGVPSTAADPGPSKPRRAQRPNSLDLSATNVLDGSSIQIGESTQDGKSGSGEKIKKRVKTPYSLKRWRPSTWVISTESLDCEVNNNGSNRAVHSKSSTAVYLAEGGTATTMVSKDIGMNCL

382 unique human kinases [13] = biological target: T13, 382 unique human kinases (Homo sapiens, UniProt Q7KZI7); conditions: MARK2/PAR-1Ba, 10 uM; for remaining activity at 10 µM: read-out: % Enzyme Activity (relative to DMSO controls)
T13 construct: purchased Reaction Biology (HotSpot contract assay)

[14] = compound 10 uM, read-out: % Enzyme Activity (relative to DMSO controls)
[15] = compound 1 uM, read-out: % Enzyme Activity (relative to DMSO controls)

T3 sequence (P29597 whole entry): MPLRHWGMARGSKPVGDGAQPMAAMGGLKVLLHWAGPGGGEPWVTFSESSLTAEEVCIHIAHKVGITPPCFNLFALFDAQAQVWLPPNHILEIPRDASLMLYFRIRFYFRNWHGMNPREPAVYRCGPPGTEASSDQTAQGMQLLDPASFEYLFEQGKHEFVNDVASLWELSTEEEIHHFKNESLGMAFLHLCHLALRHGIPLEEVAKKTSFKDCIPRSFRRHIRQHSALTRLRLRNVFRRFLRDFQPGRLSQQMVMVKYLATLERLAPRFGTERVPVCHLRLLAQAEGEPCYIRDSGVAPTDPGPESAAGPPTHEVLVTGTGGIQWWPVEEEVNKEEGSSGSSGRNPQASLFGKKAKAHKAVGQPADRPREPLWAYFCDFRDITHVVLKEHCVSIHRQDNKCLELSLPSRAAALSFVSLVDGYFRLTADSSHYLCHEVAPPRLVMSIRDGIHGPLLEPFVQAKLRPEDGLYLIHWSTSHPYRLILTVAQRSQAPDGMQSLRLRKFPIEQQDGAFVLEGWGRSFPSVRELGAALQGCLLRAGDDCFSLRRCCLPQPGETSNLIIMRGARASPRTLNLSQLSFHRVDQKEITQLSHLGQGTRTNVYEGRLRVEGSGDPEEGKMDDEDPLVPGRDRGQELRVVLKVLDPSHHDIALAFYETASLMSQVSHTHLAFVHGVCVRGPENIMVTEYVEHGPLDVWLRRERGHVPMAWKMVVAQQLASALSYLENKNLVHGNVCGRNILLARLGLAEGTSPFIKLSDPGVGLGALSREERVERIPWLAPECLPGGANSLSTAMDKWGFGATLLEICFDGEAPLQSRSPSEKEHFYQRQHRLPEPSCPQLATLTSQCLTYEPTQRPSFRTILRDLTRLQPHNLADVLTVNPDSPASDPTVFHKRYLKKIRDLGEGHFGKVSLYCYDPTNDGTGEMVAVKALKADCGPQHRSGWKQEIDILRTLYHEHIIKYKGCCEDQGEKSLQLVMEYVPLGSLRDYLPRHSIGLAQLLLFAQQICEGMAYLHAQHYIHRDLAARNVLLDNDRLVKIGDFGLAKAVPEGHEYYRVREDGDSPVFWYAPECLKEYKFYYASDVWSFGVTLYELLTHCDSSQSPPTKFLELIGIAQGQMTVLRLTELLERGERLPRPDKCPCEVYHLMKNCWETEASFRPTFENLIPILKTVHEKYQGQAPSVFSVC
T1 sequence (P08631 whole entry): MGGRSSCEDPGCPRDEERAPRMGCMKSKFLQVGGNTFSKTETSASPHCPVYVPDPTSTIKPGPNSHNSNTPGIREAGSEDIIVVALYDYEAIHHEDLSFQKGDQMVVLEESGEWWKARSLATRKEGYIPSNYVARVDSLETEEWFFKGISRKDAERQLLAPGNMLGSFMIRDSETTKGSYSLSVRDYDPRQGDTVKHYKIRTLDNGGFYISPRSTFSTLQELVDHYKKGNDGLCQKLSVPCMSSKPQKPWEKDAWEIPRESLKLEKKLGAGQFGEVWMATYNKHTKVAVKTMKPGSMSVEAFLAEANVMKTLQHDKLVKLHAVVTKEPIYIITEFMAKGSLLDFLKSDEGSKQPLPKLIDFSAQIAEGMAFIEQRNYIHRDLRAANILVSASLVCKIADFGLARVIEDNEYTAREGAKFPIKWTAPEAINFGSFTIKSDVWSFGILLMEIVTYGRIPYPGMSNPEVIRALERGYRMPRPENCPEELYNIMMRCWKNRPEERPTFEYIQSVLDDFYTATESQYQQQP
T5 sequence (Q96RG2 whole entry): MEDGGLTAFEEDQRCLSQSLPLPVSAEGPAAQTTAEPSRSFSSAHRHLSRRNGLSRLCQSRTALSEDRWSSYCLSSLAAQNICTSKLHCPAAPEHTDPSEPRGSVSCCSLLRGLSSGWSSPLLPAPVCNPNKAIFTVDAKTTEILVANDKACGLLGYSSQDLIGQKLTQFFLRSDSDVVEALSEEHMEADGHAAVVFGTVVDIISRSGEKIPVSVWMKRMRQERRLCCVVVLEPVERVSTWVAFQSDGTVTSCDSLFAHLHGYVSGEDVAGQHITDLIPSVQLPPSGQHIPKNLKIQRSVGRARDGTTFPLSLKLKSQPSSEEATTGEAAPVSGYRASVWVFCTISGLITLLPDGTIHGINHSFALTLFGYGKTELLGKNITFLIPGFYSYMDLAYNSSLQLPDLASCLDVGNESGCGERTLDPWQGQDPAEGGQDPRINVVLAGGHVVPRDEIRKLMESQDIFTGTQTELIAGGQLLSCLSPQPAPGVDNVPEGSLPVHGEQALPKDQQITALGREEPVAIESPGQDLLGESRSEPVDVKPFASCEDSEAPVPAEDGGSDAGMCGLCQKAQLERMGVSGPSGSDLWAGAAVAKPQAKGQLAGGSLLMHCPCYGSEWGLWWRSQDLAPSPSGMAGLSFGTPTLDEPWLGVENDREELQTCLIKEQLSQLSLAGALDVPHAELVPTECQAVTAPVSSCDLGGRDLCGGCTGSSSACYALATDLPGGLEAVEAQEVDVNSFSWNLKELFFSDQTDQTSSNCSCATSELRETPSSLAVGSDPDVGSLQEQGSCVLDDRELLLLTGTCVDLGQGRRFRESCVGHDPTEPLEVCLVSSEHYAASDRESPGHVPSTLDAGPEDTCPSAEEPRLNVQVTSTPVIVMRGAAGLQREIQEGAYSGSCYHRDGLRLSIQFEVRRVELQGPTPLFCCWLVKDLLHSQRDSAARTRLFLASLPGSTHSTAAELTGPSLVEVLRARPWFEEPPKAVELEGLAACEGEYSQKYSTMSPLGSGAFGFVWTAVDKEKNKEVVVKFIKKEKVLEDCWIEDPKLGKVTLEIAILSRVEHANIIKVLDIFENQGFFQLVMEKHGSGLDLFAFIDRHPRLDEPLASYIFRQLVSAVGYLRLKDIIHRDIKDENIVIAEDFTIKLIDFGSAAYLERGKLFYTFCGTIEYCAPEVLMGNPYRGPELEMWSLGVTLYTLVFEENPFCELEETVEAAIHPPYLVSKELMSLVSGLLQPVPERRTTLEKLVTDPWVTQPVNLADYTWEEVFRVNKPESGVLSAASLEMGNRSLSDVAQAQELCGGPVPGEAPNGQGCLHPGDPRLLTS
T10 sequence (P49759 whole entry): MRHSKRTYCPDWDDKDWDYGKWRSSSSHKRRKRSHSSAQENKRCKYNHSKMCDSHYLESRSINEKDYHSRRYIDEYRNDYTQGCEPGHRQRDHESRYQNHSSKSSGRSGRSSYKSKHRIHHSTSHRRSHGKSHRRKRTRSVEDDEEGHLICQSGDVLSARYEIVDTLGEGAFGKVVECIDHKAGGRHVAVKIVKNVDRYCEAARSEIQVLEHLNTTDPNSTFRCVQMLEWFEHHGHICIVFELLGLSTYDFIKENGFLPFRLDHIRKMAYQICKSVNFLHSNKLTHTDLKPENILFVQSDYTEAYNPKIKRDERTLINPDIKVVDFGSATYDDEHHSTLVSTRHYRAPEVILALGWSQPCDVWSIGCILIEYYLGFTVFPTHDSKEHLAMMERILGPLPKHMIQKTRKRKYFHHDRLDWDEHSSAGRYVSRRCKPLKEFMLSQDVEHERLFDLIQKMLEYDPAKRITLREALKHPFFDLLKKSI
T8 sequence (P22607 23-806 K650M): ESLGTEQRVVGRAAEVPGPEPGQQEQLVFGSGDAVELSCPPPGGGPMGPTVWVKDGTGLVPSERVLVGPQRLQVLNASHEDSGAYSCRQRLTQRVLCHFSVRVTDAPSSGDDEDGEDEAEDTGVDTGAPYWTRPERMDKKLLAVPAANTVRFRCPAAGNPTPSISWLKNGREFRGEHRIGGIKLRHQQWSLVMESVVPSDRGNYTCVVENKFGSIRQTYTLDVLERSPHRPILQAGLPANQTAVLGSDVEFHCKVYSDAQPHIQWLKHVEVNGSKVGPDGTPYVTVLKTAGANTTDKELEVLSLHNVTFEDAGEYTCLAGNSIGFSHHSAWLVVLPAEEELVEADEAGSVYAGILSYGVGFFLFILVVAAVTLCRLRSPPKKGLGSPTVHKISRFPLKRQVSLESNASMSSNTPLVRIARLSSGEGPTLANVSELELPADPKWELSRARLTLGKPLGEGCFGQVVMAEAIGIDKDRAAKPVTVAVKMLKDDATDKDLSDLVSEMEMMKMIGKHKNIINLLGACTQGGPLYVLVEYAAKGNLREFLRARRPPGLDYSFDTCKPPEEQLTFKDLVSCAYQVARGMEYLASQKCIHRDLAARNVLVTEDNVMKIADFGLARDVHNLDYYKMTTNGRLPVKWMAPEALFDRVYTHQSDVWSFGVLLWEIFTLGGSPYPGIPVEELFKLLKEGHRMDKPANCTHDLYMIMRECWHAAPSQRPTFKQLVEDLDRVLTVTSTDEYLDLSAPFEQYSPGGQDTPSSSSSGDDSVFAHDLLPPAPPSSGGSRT
T2 sequence (P27361 whole entry): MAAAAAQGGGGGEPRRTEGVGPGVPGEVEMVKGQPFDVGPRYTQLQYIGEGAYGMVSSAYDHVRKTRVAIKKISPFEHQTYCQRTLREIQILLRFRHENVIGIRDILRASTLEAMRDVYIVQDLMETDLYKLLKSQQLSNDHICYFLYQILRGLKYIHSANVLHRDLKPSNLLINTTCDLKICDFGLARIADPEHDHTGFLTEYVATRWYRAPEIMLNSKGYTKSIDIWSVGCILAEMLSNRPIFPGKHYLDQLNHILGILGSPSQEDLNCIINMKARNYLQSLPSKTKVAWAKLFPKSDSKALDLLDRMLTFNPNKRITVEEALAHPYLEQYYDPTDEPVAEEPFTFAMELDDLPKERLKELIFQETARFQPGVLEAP

SMILES | remaining activity at 10 µM (382 unique human kinases [1]; [14]) [%] | remaining activity at 10 µM (382 unique human kinases [2]) [%] | remaining activity at 10 µM (382 unique human kinases [3]) [%] | remaining activity at 10 µM (382 unique human kinases [4]) [%] | remaining activity at 10 µM (382 unique human kinases [5]; [14]) [%] | remaining activity at 10 µM (382 unique human kinases [6]) [%] | remaining activity at 10 µM (382 unique human kinases [7]) [%] | remaining activity at 10 µM (382 unique human kinases [8]) [%] | remaining activity at 10 µM (382 unique human kinases [9]) [%] | remaining activity at 10 µM (382 unique human kinases [10]) [%] | remaining activity at 10 µM (382 unique human kinases [11]) [%] | remaining activity at 10 µM (382 unique human kinases [12]) [%] | remaining activity at 10 µM (382 unique human kinases [13]) [%] | other results
CCNC(=O)c1noc(-c2cc(C(C)C)c(O)cc2O)c1-c1ccc(CN2CCOCC2)cc1 [Luminespib] | 97.2 | 96.1 | 102 | 96.7 | 99 | 112 | – | – | – | – | – | – | – | % Enzyme Activity (relative to DMSO controls) (382 unique human kinases [1]; compound 10 uM): 95.21%; % Enzyme Activity (relative to DMSO controls) (382 unique human kinases [2]): 95.87%; % Enzyme Activity (relative to DMSO controls) (382 unique human kinases [3]): 101.11%; % Enzyme Activity (relative to DMSO controls) (382 unique human kinases [4]): 95.56%; % Enzyme Activity (relative to DMSO controls) (382 unique human kinases [5]; compound 10 uM): 98.65%; % Enzyme Activity (relative to DMSO controls) (382 unique human kinases [6]): 110.27%
CC(C)c1cc(-c2n[nH]c(=O)n2-c2ccc3c(ccn3C)c2)c(O)cc1O [Ganetespib (STA9090)] | – | – | – | – | – | – | 108 | 86.5 | 83.9 | 69.1 | 73.7 | 65.3 | 75.7 | –
CCNC(=O)c1noc(-c2cc(C(C)C)c(O)cc2O)c1-c1ccc(CN2CCOCC2)cc1 [Luminespib (AUY-922)] | – | – | – | – | – | – | 79.7 | 78.7 | 97.3 | 95.8 | 103 | 108 | 104 | % Enzyme Activity (relative to DMSO controls) (382 unique human kinases [7]): 78.17%; % Enzyme Activity (relative to DMSO controls) (382 unique human kinases [8]): 70.76%; % Enzyme Activity (relative to DMSO controls) (382 unique human kinases [9]): 96.69%; % Enzyme Activity (relative to DMSO controls) (382 unique human kinases [10]): 95.73%; % Enzyme Activity (relative to DMSO controls) (382 unique human kinases [11]): 101.81%; % Enzyme Activity (relative to DMSO controls) (382 unique human kinases [12]): 104.76%; % Enzyme Activity (relative to DMSO controls) (382 unique human kinases [13]): 102.26%
CC(C)c1cc(-c2n[nH]c(=O)n2-c2ccc3c(ccn3C)c2)c(O)cc1O [Ganetespib] | 14.5 | 101 | 62.6 | 60.1 | 12.1 | 98.1 | – | – | – | – | – | – | – | remaining activity at 1 µM (382 unique human kinases [1]; [15]): 77.7%; remaining activity at 1 µM (382 unique human kinases [5]; [15]): 49.7%
